One molecule from patent EP2692332A2, “Composition for the treatment of callus, corns, moles, telangiectasias, and psoriasis” (Unigroup ApS, priority 2012, dated 2014) can be followed below.

This series is classed as physicochemical. Conditions: at higher concentrations than salicylic acid.

For the molecule `O=CO` [formic acid], the “miscibility with ethyl lactate” value was “miscible”.
